# Measured values published in US20230243822A1, “MOLECULAR DISEASE PROFILE AND USE THEREOF FOR MONITORING AND TREATING RHEUMATAOID ARTHRITIS” (JANSSEN BIOTECH, INC., priority 2020, published 2023).
# Tests used:
# [1] = tested on: RA patients; details: cited from earlier work
# [2] = tested on: 4-analyte M-DP panel (CRP, SAA, CXCL10, CXCL13); experiment: Pharmacodynamic 4-analyte M-DP score by MSD U-PLEX, CORRONA CERTAIN biorepository serum; assay type: in vivo, human; details: U-PLEX 4-analyte; for M-DP score GMean decrease: all treated
# Method: PD M-DP scores for the 4-analyte panel were calculated based on these concentrations of CRP, SAA, CXCL10, and CXCL13.
# These samples were not previously evaluated for the M-DP panel development or reduction.
# [3] = tested on: 14-analyte M-DP panel; experiment: Pharmacodynamic M-DP score, 14-analyte panel (SomaLogic SOMAscan), clinical studies in RA; assay type: in vivo, human
# Excerpt: (§1) Serum samples and data from eight interventional clinical studies with seven different active treatments for RA or placebo treatment were obtained and analyzed: sirukumab (anti-IL-6) and placebo treatments in SIRROUND-M (NCT01689532; Takeuchi T, et al. Arthritis Res Ther. 2018 Mar. 7; 20(1): 42), SIRROUND-D (NCT01604343; Takeuchi T, et al. Ann Rheum Dis. 2017 Dec.; 76(12): 2001-2008), and SIRROUND-T (NCT01606761; Aletaha D, et al. Lancet. 2017 Mar. 25; 389(10075): 1206-1217); sirukumab and adalimumab (anti-TNF-alpha) treatments in SIRROUND-H (NCT02019472; Taylor PC, et al. Ann Rheum Dis. 2018 May; 77(5): 658-666); golimumab (anti-TNF-alpha) treatment in GO-FURTHER (NCT00973479; Weinblatt ME, et al. Ann Rheum Dis. 2013 March; 72(3): 381-9); guselkumab (anti-IL-23p19), ustekinumab (anti-IL-12/IL-23p40), and placebo treatments in CNTO1275ARA2001 (NCT01645280; Cox JD, et al. […]); JNJ-40346527 (colony-stimulating factor-1 inhibitor) and placebo treatments in 40346527ARA2001 (NCT01597739; Genovese MC, et al. J Rheumatol. 2015 October; 42(10): 1752-60). Plasma samples were obtained from the RA-MAP TACERA study (Cope AP, et al. Nat Rev Rheumatol. 2018 January; 14(1): 53-60) before (baseline) and 6-months after initiation of conventional synthetic disease-modifying anti-rheumatic drugs (csDMARDs). Details of treatment dose groups, concomitant methotrexate use, and previous experience with csDMARDs and biologics are reported in Table 1. The studies were conducted in accordance with the Declaration of Helsinki. The study protocols were reviewed and approved by an independent ethics committee or institutional review board for each study center. Written informed consent was obtained from all patients before study entry. Additional study details and patient characteristics are available in the referenced publications for each study. For SIRROUND-D and SIRROUND-T studies, sets of serum samples from demographically-matched healthy controls were obtained from commercial sources (BioIVT, Westbury, N.Y.).
# (§2) Serum samples from baseline (week 0) and the time points indicated in Table 1 were provided for quantification of 1189 serum analytes using the SomaScan v3.1 platform (SomaLogic, Boulder, Colo.; www.somalogic.com), with the exception of RA-MAP TACERA, for which plasma samples were analyzed for 1301 analytes using the SomaScan v3.2 platform. For some studies, a redacted dataset reporting data for a subset of the analytes was obtained. Relative fluorescence unit (RFU) data were sequentially normalized for hybridization controls (internal standards per samples), median signal across all samples (assumes same total protein concentration across sample set), and calibration controls (common sample standards across analysis plates). Samples failed quality control standards defined by Somalogic were excluded from analyses. The normalized RFU values were log2-transformed for subsequent analyses.
# (§3) Changes in analyte expression levels were calculated for individual samples as the log2 transform of the ratio of the analyte level at the indicated time point (visit level) over the analyte level at baseline (baseline level) for a given subject, i.e., log 2(visit level/baseline level). Changes in RA disease-associated analytes per sample were summarized using a pharmacodynamic (PD) molecular disease profile (M-DP) score, defined as the median value of the log 2(visit level/baseline level) values for analytes in the defined M-DP analyte set. […] PD M-DP scores in the log 2(visit level/baseline level) scale can be transformed to percent change from baseline, using the transformation: (2^M-DP score−1)×100%.
# Statistical analyses were performed on log2-transformed data, for either normalized Relative fluorescence unit (RFU) datasets or within-subject fold/baseline datasets. Significance of differences between groups was evaluated using General Linear Models, with t-tests when comparing two groups. […]
# [4] = tested on: 4-analyte M-DP panel (CRP, CXCL10, CXCL13, SAA); experiment: Pharmacodynamic M-DP score, 4-analyte panel CRP, CXCL10, CXCL13, SAA (SOMAscan), clinical studies in RA; assay type: in vivo, human; details: 4-analyte, 40346527ARA2001, oral 100 mg BID; for M-DP score mean difference ± SD, Good vs. No / M-DP score mean ± SD, DAS28-CRP response group Good / M-DP score mean ± SD, DAS28-CRP response group Moderate / M-DP score mean ± SD, DAS28-CRP response group No: response at week 12
# Excerpt: as §1, §2, §3
# In selecting the best minimal set of analytes that performs similarly to the full 14-analyte set, analyte sets that results in significant associations between DAS28-CRP EULAR good vs. no response with p<0.05 for each study were prioritized (Table 4). […]
# [5] = CERTAIN Biorepository RA patients
# [6] = 40346527ARA2001, score at week 4, oral 100 mg BID, response at week 12
# [7] = 40346527ARA2001, score at week 12, oral 100 mg BID, response at week 12
molecule,measurement,setting,value
rituximab,"EULAR DAS28-CRP clinical response rate, good response",[1]; [5],50%
same,"EULAR DAS28-CRP clinical response rate, moderate response",[1]; [5],32%
same,"EULAR DAS28-CRP clinical response rate, no response",[1]; [5],18%
same,M-DP score GMean decrease,[2]; 3-months,30%
same,M-DP score GMean decrease,[2]; 6-months,36%
same,"M-DP score mean ± SD, 6-month DAS28-CRP response group Good",[2]; score at month 3M,−0.44 ± 1.13 [7] log2 (fold/baseline)
same,"M-DP score mean ± SD, 6-month DAS28-CRP response group Moderate",[2]; score at month 3M,−0.71 ± 1.62 [4] log2 (fold/baseline)
same,"M-DP score mean ± SD, 6-month DAS28-CRP response group No",[2]; score at month 3M,−0.23 n.a. [1] log2 (fold/baseline)
same,"M-DP score mean ± SD, All treated",[2]; score at month 3M,−0.51 ± 1.20 [12] log2 (fold/baseline)
same,"M-DP score mean ± SD, 6-month DAS28-CRP response group Good",[2]; score at month 6M,−0.96 ± 0.79 [7]* log2 (fold/baseline)
same,"M-DP score mean ± SD, 6-month DAS28-CRP response group Moderate",[2]; score at month 6M,−0.24 ± 1.23 [4] log2 (fold/baseline)
same,"M-DP score mean ± SD, 6-month DAS28-CRP response group No",[2]; score at month 6M,−0.01 n.a. [1] log2 (fold/baseline)
same,"M-DP score mean ± SD, All treated",[2]; score at month 6M,−0.64 ± 0.95 [12] * log2 (fold/baseline)
"CC1(C)CC=C(c2nc(C3CC(C)(C)OC(C)(C)C3)ccc2NC(=O)c2nc(C#N)c[nH]2)CC1 [JNJ-40346527, reference compound]",clinical efficacy in the underlying clinical studies,[1]; RA patients,not clinically efficacious
same,"M-DP score mean ± SD, All treated","[3]; 40346527ARA2001, score at week 4, oral 100 mg BID",−0.08 ± 0.27 log2 (fold/baseline)
same,"M-DP score mean difference ± SD, Good vs. No",[3]; [6],0.08 ± 0.52 log2 (fold/baseline)
same,"M-DP score mean ± SD, DAS28-CRP response group Good",[3]; [6],0.29 ± 0.42 log2 (fold/baseline)
same,"M-DP score mean ± SD, DAS28-CRP response group Moderate",[3]; [6],−0.05 ± 0.48 log2 (fold/baseline)
same,"M-DP score mean ± SD, DAS28-CRP response group No",[3]; [6],−0.09 ± 0.54 [23] log2 (fold/baseline)
same,"M-DP score mean ± SD, All treated","[3]; 40346527ARA2001, score at week 12, oral 100 mg BID",−0.13 ± 0.33 log2 (fold/baseline)
same,"M-DP score mean ± SD, DAS28-CRP response group Good",[3]; [7],−0.50 ± 0.61 log2 (fold/baseline)
same,"M-DP score mean ± SD, DAS28-CRP response group Moderate",[3]; [7],−0.07 ± 0.55 log2 (fold/baseline)
same,"M-DP score mean ± SD, DAS28-CRP response group No",[3]; [7],0.18 ± 0.50 [22] log2 (fold/baseline)
same,"GMean M-DP scores, change","[3]; week 4 or latest time point evaluated (weeks 28, 28, and 12, respectively)",not decreased
same,"M-DP score mean ± SD, All treated",[4]; score at week 4,−0.03 ± 0.49 log2 (fold/baseline)
same,"M-DP score mean difference ± SD, Good vs. No",[4]; score at week 4,0.34 ± 0.52 (0.1581) log2 (fold/baseline)
same,"M-DP score mean ± SD, DAS28-CRP response group Good",[4]; score at week 4,−0.29 ± 0.42 log2 (fold/baseline)
same,"M-DP score mean ± SD, DAS28-CRP response group Moderate",[4]; score at week 4,−0.05 ± 0.48 log2 (fold/baseline)
same,"M-DP score mean ± SD, DAS28-CRP response group No",[4]; score at week 4,−0.09 ± 0.54 log2 (fold/baseline)
same,"M-DP score mean ± SD, All treated",[4]; score at week 12,−0.01 ± 0.56 log2 (fold/baseline)
same,"M-DP score mean difference ± SD, Good vs. No",[4]; score at week 12,−0.68 ± 0.52 (0.0079) log2 (fold/baseline)
same,"M-DP score mean ± SD, DAS28-CRP response group Good",[4]; score at week 12,−0.50 ± 0.61 log2 (fold/baseline)
same,"M-DP score mean ± SD, DAS28-CRP response group Moderate",[4]; score at week 12,−0.07 ± 0.55 log2 (fold/baseline)
same,"M-DP score mean ± SD, DAS28-CRP response group No",[4]; score at week 12,0.18 ± 0.50 log2 (fold/baseline)
